Test results from patent US9382243B2, “Azabenzimidazole tetrahydropyran derivatives” (Merck Sharp & Dohme Corp., priority 2012, dated 2016).

Columns and labels:
[1] = system: ob/ob and db/db mice; conditions: following 8 weeks of administration; cited from earlier work
[2] = target: recombinant human AMPK complex 1 (containing α1β1γ1) (Homo sapiens, UniProt Q13131+Q9Y478); assay: AMPKSAMSF in vitro AMPK activation assay, complex 1; type: biochemical; conditions: for Emax: 10-point titration, expressed as % maximum AMP activation; for EC50: inflection point reflecting 50% of the maximum activation, table for human AMPK Complex 1
Chain of recombinant human AMPK complex 1 (containing α1β1γ1) (Q13131 whole entry): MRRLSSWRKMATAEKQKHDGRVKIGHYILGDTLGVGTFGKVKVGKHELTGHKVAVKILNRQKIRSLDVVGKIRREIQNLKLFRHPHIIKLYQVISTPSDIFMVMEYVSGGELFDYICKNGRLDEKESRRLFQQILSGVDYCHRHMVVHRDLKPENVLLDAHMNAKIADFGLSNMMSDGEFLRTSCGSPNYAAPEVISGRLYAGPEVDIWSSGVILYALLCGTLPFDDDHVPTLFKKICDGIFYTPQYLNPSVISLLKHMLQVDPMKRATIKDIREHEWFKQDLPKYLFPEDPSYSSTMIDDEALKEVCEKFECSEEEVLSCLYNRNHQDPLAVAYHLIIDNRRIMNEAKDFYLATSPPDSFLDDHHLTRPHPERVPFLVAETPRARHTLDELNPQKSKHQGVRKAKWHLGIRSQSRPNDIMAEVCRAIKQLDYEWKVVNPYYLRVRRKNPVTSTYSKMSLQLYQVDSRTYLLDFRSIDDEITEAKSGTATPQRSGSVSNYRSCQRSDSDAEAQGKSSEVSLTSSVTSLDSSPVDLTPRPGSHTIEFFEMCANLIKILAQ
Chain of recombinant human AMPK complex 1 (containing α1β1γ1) (Q9Y478 whole entry): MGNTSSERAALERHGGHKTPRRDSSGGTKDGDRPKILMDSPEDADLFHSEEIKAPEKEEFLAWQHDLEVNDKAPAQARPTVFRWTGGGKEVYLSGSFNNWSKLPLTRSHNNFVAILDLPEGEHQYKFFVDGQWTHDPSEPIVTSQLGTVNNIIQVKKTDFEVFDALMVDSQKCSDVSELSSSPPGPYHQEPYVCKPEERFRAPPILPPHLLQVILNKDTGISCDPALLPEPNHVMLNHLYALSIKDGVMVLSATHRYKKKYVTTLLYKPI
Chain of recombinant human AMPK complex 1 (containing α1β1γ1) (P54619 whole entry partner): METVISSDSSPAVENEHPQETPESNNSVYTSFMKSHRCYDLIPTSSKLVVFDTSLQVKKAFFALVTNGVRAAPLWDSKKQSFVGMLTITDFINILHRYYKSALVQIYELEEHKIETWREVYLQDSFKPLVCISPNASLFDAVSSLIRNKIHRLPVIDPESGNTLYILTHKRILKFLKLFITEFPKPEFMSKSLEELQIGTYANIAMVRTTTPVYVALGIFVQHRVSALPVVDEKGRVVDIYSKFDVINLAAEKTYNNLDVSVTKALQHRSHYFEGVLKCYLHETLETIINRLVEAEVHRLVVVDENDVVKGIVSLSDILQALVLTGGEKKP
Experimental: The recombinant human AMPK complex 1 (containing α1β1γ1) or AMPK complex 7 (containing α2β1γ1) was obtained from baculovirus expression system. Recombinant viruses were generated by cotransfection of AMPK/pBacPak9 clones with Baculogold baculovirus DNA (Pharmingen) in spodoptera frugiperda 21 cells according to the manufacturer's instructions. Each round of virus amplification was performed for 5 days in Grace's medium containing 10% serum. Virus that had been subjected to three rounds of amplification was used for all protein production procedures. To express the AMPK complex, sf21 cells were adapted to serum free medium (SF900 II, Invitrogen) by sequential dilution from serum containing stocks into SF900II medium and maintained in shaker flasks at 90 rpm at 27° C. The recombinant AMPK enzyme complex was produced by triple infection, one recombinant virus for each of the subunits, in sf21 cells under serum free conditions. Cells were infected in log phase, 1×10^6 cells/ml, at a multiplicity of infection of ˜5. Cells were harvested by centrifugation at 10,000×g for 15 minutes after 72 hours of infection with viruses. The insect cell pellet from 2 liters of culture was resuspended in 50 ml lysis buffer (20 mM Tris-HCl, 50 mM NaCl, 50 mM NaF, 30 mM Na PPi, 0.25 M sucrose, 10 mM ZnCl2, 2 mM DTT, 0.4 mg/ml digitonin) and subjected to two cycles of freeze-thaw lysis in a dry-ice ethanol bath. Insoluble material was removed by centrifugation at 10,000×g and the supernatant was fractionated with use of polyethylene glycol (PEG). The protein fraction precipitating between 2.5 and 6% PEG was used for further purification using a Blue-Sepharose step (Zhou et al, J. Clin. Invest. 108, 1167-1174, 2001).
The in vitro AMPK activation assay is performed in a volume of 30 μl in a 384-well plate. Enzyme reactions were assembled in the microtiter plate by adding 15 μl of 2× enzyme in assay buffer (20 mM HEPES, pH 7.3, 5 mM MgCl2, 3 mM DTT, 0.01% Brij 35 and CamK Kinase, to activate AMPK) to wells which contained either DMSO or compound. The reaction was initiated with the addition of 15 μl 2× substrate mixture containing 200 μM ATP, and 3.0 μM fluorescently labeled SAMS (5-FAM-HMRSAMSGLHLVKRR-COOH) in assay buffer. After 45-minute incubation at 25° C., the reaction was stopped by the addition of 70 μl stop buffer (100 mM HEPES, pH 7.3, 40 mM EDTA, 0.015% Brij 35). Phosphorylated 5-FAM SAMS product is assessed using a Caliper EZ Reader LabChip microfluidics reader. Product conversion is determined by calculating the peak heights of the substrate and product and reporting the product/(product+substrate) peak ratio. The 10-point titration data were expressed as % maximum AMP activation. The results were plotted using 4 parameter fit and the inflection point reflecting 50% of the maximum activation was reported as the EC50.

For NC(=O)c1ncn([C@@H]2O[C@H](CO)[C@@H](O)[C@H]2O)c1N [AICAR], the blood glucose reduction [1] is given as 35%.
For CC(CO)Oc1ccc(-c2nc3nc(O[C@H]4CO[C@H](CO)[C@@H](O)C4)[nH]c3cc2Cl)cc1 (stereo partly drawn) [Example 1, (2R,3S,5R)-5-((6-chloro-5-(4-((1-hydroxypropan-2-yl)oxy)phenyl)-1H-imidazo[4,5-b]pyridin-2-yl)oxy)-2-(hydroxymethyl)tetrahydro-2H-pyran-3-ol], the Emax [2] was 574% and the EC50 [2] was 128 nM.
OC[C@H]1OC[C@H](Oc2nc3nc(-c4ccc(N5CC[C@@H](O)C5)cc4)c(Cl)cc3[nH]2)C[C@@H]1O [Example 34] gave an Emax [2] of 367% and an EC50 [2] of 19 nM.
OC[C@H]1OC[C@H](Oc2nc3nc(-c4ccc(N5CC[C@@H](F)C5)cc4)c(Cl)cc3[nH]2)C[C@@H]1O [Example 35] showed an Emax [2] of 489% and an EC50 [2] of 18 nM.
Work on OC[C@H]1OC[C@H](Oc2nc3nc(-c4ccc(N5CC[C@H](F)C5)cc4)c(Cl)cc3[nH]2)C[C@@H]1O [Example 37] yielded an Emax [2] of 473% and an EC50 [2] of 22 nM.
In the case of CC(C)(O)c1ccc(-c2ccc(-c3nc4nc(O[C@H]5CO[C@H](CO)[C@@H](O)C5)[nH]c4cc3Cl)cc2)cc1 [Example 39, (2R,3 S,5R)-5-((6-chloro-5-(4′-(2-hydroxypropan-2-yl)-[1,1′-biphenyl]-4-yl)-1H-imidazo[4,5-b]pyridin-2-yl)oxy)-2-(hydroxymethyl)tetrahydro-2H-pyran-3-ol], the Emax [2] is reported as 379% and the EC50 [2] is reported as 4 nM.
For OC[C@H]1OC[C@H](Oc2nc3nc(-c4ccc(-c5ccc(-n6cccn6)cc5)cc4)c(Cl)cc3[nH]2)C[C@@H]1O [Example 45], the Emax [2] was 417% and the EC50 [2] was 3 nM.
Work on OC[C@H]1OC[C@H](Oc2nc3nc(-c4ccc(-c5ccc(-c6ccn[nH]6)cc5)cc4)c(Cl)cc3[nH]2)C[C@@H]1O [Example 46] yielded an Emax [2] of 619% and an EC50 [2] of 15 nM.
Work on OC[C@H]1OC[C@H](Oc2nc3nc(-c4ccc(-c5ccc(-n6nccn6)cc5)cc4)c(Cl)cc3[nH]2)C[C@@H]1O [Example 47] yielded an Emax [2] of 590% and an EC50 [2] of 25 nM.
OC[C@H]1OC[C@H](Oc2nc3nc(-c4ccc(-c5ccc(-n6ccnn6)cc5)cc4)c(Cl)cc3[nH]2)C[C@@H]1O [Example 48] gave an Emax [2] of 615% and an EC50 [2] of 2 nM.
With NC(c1ccc(-c2ccc(-c3nc4nc(O[C@H]5CO[C@H](CO)[C@@H](O)C5)[nH]c4cc3Cl)cc2)cc1)C(F)(F)F (stereo partly drawn) [Example 49, (2R,3 S,5R)-5-((5-(4′-(1-amino-2,2,2-trifluoroethyl)-[1,1′-biphenyl]-4-yl)-6-chloro-1H-imidazo[4,5-b]pyridin-2-yl)oxy)-2-(hydroxymethyl)tetrahydro-2H-pyran-3-ol] the Emax [2] was 464% and the EC50 [2] was 9 nM.
With O=S(=O)(CC1COC1)c1ccc(-c2ccc(-c3nc4nc(O[C@H]5CO[C@H](CO)[C@@H](O)C5)[nH]c4cc3Cl)cc2)cc1 [Example 54] the Emax [2] was 767% and the EC50 [2] was 9 nM.
Work on O=S(=O)(c1ccc(-c2ccc(-c3nc4nc(O[C@H]5CO[C@H](CO)[C@@H](O)C5)[nH]c4cc3Cl)cc2)cc1)C1COC1 [Example 55] yielded an Emax [2] of 752% and an EC50 [2] of 8 nM.
In the case of NS(=O)(=O)c1ccc(-c2ccc(-c3nc4nc(O[C@H]5CO[C@H](CO)[C@@H](O)C5)[nH]c4cc3Cl)cc2)cc1 [Example 56], the Emax [2] is reported as 392% and the EC50 [2] is reported as 11 nM.
For O=C(c1ccc(-c2ccc(-c3nc4nc(O[C@H]5CO[C@H](CO)[C@@H](O)C5)[nH]c4cc3Cl)cc2)cc1)N1CC[C@@H](O)C1 [Example 61, (4′-(6-chloro-2-(((3R,5 S,6R)-5-hydroxy-6-(hydroxymethyl)tetrahydro-2H-pyran-3-yl)oxy)-1H-imidazo[4,5-b]pyridin-5-yl)-[1,1′-biphenyl]-4-yl)((R)-3-hydroxypyrrolidin-1-yl)methanone], the Emax [2] was 568% and the EC50 [2] was 36 nM.
For OC[C@H]1OC[C@H](Oc2nc3nc(-c4ccc(-c5ccccc5)cc4)c(Cl)cc3[nH]2)[C@@H](O)[C@@H]1O [Example 62, (2R,3 S,4S,5 S)-5-((5-([1,1′-biphenyl]-4-yl)-6-chloro-1H-imidazo[4,5-b]pyridin-2-yl)oxy)-2-(hydroxymethyl)tetrahydro-2H-pyran-3,4-diol], the Emax [2] was 545% and the EC50 [2] was 17 nM.
Compound CC(C)(O)c1ccc(-c2ccc(-c3nc4nc(O[C@H]5CO[C@H](CO)[C@@H](O)[C@@H]5O)[nH]c4cc3Cl)cc2)cc1 [Example 66] has an Emax [2] of 410% and an EC50 [2] of 13 nM.
With CS(=O)(=O)c1ccc(-c2ccc(-c3nc4nc(O[C@H]5CO[C@H](CO)[C@@H](O)[C@@H]5O)[nH]c4cc3Cl)cc2)cc1 [Example 67] the Emax [2] was 418% and the EC50 [2] was 3 nM.
Work on O=C(c1ccc(-c2ccc(-c3nc4nc(O[C@H]5CO[C@H](CO)[C@@H](O)[C@@H]5O)[nH]c4cc3Cl)cc2)cc1)N1CCC(O)CC1 [Example 68] yielded an Emax [2] of 419% and an EC50 [2] of 6 nM.
CC(C)(O)[C@H]1OC[C@H](Oc2nc3cc(Cl)c(-c4ccc(-c5ccccc5)cc4)nc3[nH]2)C[C@@H]1O [Example 70, (2S,3 S,5R)-5-((5-([1,1′-biphenyl]-4-yl)-6-chloro-1H-imidazo[4,5-b]pyridin-2-yl)oxy)-2-(2-hydroxypropan-2-yl)tetrahydro-2H-pyran-3-ol] gave an Emax [2] of 417% and an EC50 [2] of 31 nM.
For CNC(=O)c1ccc(-c2ccc(-c3nc4nc(O[C@H]5CO[C@H](CO)[C@@H](O)C5)[nH]c4cc3Cl)cc2)cc1 [Example 71, 4′-(6-chloro-2-(((3R,5 S,6R)-5-hydroxy-6-(hydroxymethyl)tetrahydro-2H-pyran-3-yl)oxy)-1H-imidazo[4,5-b]pyridin-5-yl)-N-methyl-[1,1′-biphenyl]-4-carboxamide], the Emax [2] was 443% and the EC50 [2] was 6 nM.
With CC1(O)CCN(C(=O)c2ccc(-c3ccc(-c4nc5nc(O[C@H]6CO[C@H](CO)[C@@H](O)C6)[nH]c5cc4Cl)cc3)cc2)CC1 [Example 72] the Emax [2] was 504% and the EC50 [2] was 8 nM.
Compound O=C(c1ccc(-c2ccc(-c3nc4nc(O[C@H]5CO[C@H](CO)[C@@H](O)C5)[nH]c4cc3Cl)cc2)cc1)N1CCC(O)(C(F)(F)F)CC1 [Example 73] has an Emax [2] of 249% and an EC50 [2] of 8 nM.
With COC(=O)Nc1ccc(-c2ccc(-c3nc4[nH]c(O[C@H]5CO[C@H](CO)[C@@H](O)C5)nc4cc3Cl)cc2)cc1 [Example 74, Methyl (4′-(6-chloro-2-(((3R,5S,6R)-5-hydroxy-6-(hydroxymethyl)tetrahydro-2H-pyran-3-yl)oxy)-1H-imidazo[4,5-b]pyridin-5-yl)-[1,1′-biphenyl]-4-yl)carbamate] the Emax [2] was 460% and the EC50 [2] was 25 nM.
With O=C(Nc1ccc(-c2ccc(-c3nc4nc(O[C@H]5CO[C@H](CO)[C@@H](O)C5)[nH]c4cc3Cl)cc2)cc1)OCC(O)CO (stereo partly shown) [Example 77] the Emax [2] was 494% and the EC50 [2] was 15 nM.
